Laboratory results reported in patent US20120094949A1, “HISTONE MODIFICATION PATTERNS FOR CLINICAL DIAGNOSIS AND PROGNOSIS OF CANCER” (The Regents of the University of California, priority 2009, published 2012).

Key:
[1] = test system: pancreatic adenocarcinoma; assay: Kaplan-Meier survival analysis comparing adjuvant treatments within histone groups, RTOG 9704 TMA; format: in vivo, human; details: adjuvant chemotherapy; for overall or disease-free survival, gemcitabine or 5-FU: each of the high level histone subgroups
Procedure: METHODS: Tissue microarrays (TMAs) from two large pancreatic adenocarcinoma cohorts were examined, including a 195 patient cohort from RTOG 9704, a multi-center phase III randomized treatment trial comparing adjuvant gemcitabine versus 5-fluorouracil (5-FU), and a 140 patient cohort of Stage I or II cancer from UCLA Medical Center. Immunohistochemistry for three histone modifications (H3K4me2, H3K9me2 and H3K18ac) was performed. Positive tumor cell staining of the histone modifications was used to classify patients into low and high staining groups, which were related to clinicopathologic parameters and clinical outcome measures.
Pancreatic adenocarcinoma patients and tissue microarrays. The RTOG 9704 pancreatic cancer tissue microarray (TMA) consisted of 229 cases of pancreatic adenocarcinoma obtained from patients enrolled in RTOG 9704, a phase III randomized post-operative adjuvant treatment trial comparing 5-fluorouracil (5-FU) to gemcitabine before and after chemoradiation (Regine et al., Jama 299:1019-26 (2008)). In RTOG 9704, all patients received adjuvant chemotherapy (5-FU or gemcitabine) for durations of one month before and three months following chemoradiation therapy, which included 5-FU infusion as a radiation sensitizer. Clinicopathologic factors were collected as part of patient enrollment, as were treatment schedules and follow-up clinical information including toxicity, overall survival and disease-free survival. The UCLA Stage I/II pancreatic cancer TMA consisted of 140 cases of AJCC stage I or II pancreatic adenocarcinoma from the UCLA Department of Pathology and Laboratory Medicine archives, representing patients who underwent complete gross resection of tumor at UCLA Medical Center between 1987 and 2005. All work was performed with appropriate institutional review board approvals.
Statistical Analysis. Specific histone cut-offs were previously shown to predict survival in subsets of patients with multiple types of carcinoma, including prostate, lung and kidney (Seligson et al., Am J Pathol 174:1619-1628 (2009); Seligson et al., Nature 435:1262-6 (2005)). In order to standardize and apply these same cut-offs in both pancreatic cancer TMAs, each tumor was assigned a percent rank value (quantile) based on median percent of cells staining relative to its TMA dataset using the SAS system procedure RANK with TIES=LOW option, which assigns the smallest of the corresponding ranks for the ties data values. Each tumor was then assigned into a low or high level staining group based on its percent rank, including H3K4me2 (<60 vs. ≧60 percent rank), H3K9me2 (<30 vs. ≧30 percent rank for the RTOG TMA or <25 vs. ≧25 percent rank for the UCLA Stage I/II TMA) and H3K18ac (<35 vs. ≧35 percent rank). Survival estimates were generated and visualized using the Kaplan-Meier method and survival curves were compared using the log-rank test. Multivariate Cox proportional hazards models were used to test statistical independence and significance of multiple predictors. Overall survival time was measured from the date of randomization (RTOG 9704 TMA) or date of surgery (UCLA Stage I/II TMA) to the date of death due to any cause or last follow-up. Disease-free survival time was only determined for RTOG 9704 and was measured from the date of randomization to the date of first disease-free failure event defined as local or regional disease relapse, distant disease, second primary or death due to any cause. […]

[2] = test system: pancreatic adenocarcinoma; details: setting of fluorouracil-based chemoradiation; resected pancreatic cancer; cited from earlier work

Compound | overall or disease-free survival, gemcitabine or 5-FU ([1]; data not shown) | overall survival, 5-FU versus gemcitabine ([1]; low H3K4me2 subgroup, data not shown) | disease-free survival, 5-FU versus gemcitabine ([1]; low H3K4me2 subgroup, log rank test p=0.014) | disease-free survival, 5-FU versus gemcitabine ([1]; low H3K18ac subgroup, log rank test p=0.015) | survival benefit of adjuvant gemcitabine over adjuvant 5-FU [2]
O=c1[nH]cc(F)c(=O)[nH]1 [5-FU, 5-fluorouracil] | no significant differences | non-significant trend towards worse overall survival | worse disease-free survival | worse disease-free survival | –
Nc1ccn([C@@H]2O[C@H](CO)[C@@H](O)C2(F)F)c(=O)n1 [gemcitabine] | no significant differences | – | – | – | non-statistically significant survival benefit
